Like-named read-outs stand apart in the source and are kept apart here.
Key:
[1] = background description of Rebaudioside A forms, % = grams soluble in 100 grams of solvent, cited from earlier work
[2] = cited from earlier work
[3] = Solubility in RO water at room temperature; format: physicochemical; conditions: % = grams soluble in 100 grams of solvent
Experimental: Hereinafter, unless specified otherwise, the solubility of material is determined in RO (reverse osmosis) water at room temperature.

[4] = Solubility comparison of spray dried amorphous powder samples; format: physicochemical; conditions: room temperature
Experimental: Hereinafter, unless specified otherwise, the solubility of material is determined in RO (reverse osmosis) water at room temperature. Where the solubility is expressed as “%” it to be understood as number of grams of material soluble in 100 grams of solvent.

| Observation (solubility) ([4]; at 5% in water) | Observation (solubility) ([4]; at 10% in water) | Observation (solubility) ([4]; at 20% in water) | Observation (solubility) ([4]; at 30% in water) | SMILES | Rate of dissolution in H2O at 25° C. ([2]; grade in words) | other results |
| --- | --- | --- | --- | --- | --- | --- |
|  |  |  |  | C=C1C[C@@]23CC[C@H]4[C@@](C)(CCC[C@@]4(C)C(=O)O[C@@H]4O[C@H](CO)[C@@H](O)[C@H](O)[C@H]4O)[C@@H]2CC[C@]1(O[C@@H]1O[C@H](CO)[C@@H](O)[C@H](O[C@@H]2O[C@H](CO)[C@@H](O)[C@H](O)[C@H]2O)[C@H]1O[C@@H]1O[C@H](CO)[C@@H](O)[C@H](O)[C@H]1O)C3 [Crystalline Rebaudioside A, Rebaudioside A] |  | solubility [1]: 1%-2% |
|  |  |  |  | C=C1C[C@@]23CC[C@H]4[C@@](C)(CCC[C@@]4(C)C(=O)O[C@@H]4O[C@H](CO)[C@@H](O)[C@H](O)[C@H]4O)[C@@H]2CC[C@]1(O[C@@H]1O[C@H](CO)[C@@H](O)[C@H](O[C@@H]2O[C@H](CO)[C@@H](O)[C@H](O)[C@H]2O)[C@H]1O[C@@H]1O[C@H](CO)[C@@H](O)[C@H](O)[C@H]1O)C3 [Form 1, Rebaudioside A] | Very low | solubility ([1]; listed as hydrate form): less than 0.2%; Rate of dissolution in H2O at 25° C. ([2]; in 60 minutes): (<0.2% in 60 |
|  |  |  |  | C=C1C[C@@]23CC[C@H]4[C@@](C)(CCC[C@@]4(C)C(=O)O[C@@H]4O[C@H](CO)[C@@H](O)[C@H](O)[C@H]4O)[C@@H]2CC[C@]1(O[C@@H]1O[C@H](CO)[C@@H](O)[C@H](O[C@@H]2O[C@H](CO)[C@@H](O)[C@H](O)[C@H]2O)[C@H]1O[C@@H]1O[C@H](CO)[C@@H](O)[C@H](O)[C@H]1O)C3 [Form 3, Rebaudioside A] | High | Rate of dissolution in H2O at 25° C. ([2]; in 5 minutes): > 30% |
|  |  |  |  | C=C1C[C@@]23CC[C@H]4[C@@](C)(CCC[C@@]4(C)C(=O)O[C@@H]4O[C@H](CO)[C@@H](O)[C@H](O)[C@H]4O)[C@@H]2CC[C@]1(O[C@@H]1O[C@H](CO)[C@@H](O)[C@H](O[C@@H]2O[C@H](CO)[C@@H](O)[C@H](O)[C@H]2O)[C@H]1O[C@@H]1O[C@H](CO)[C@@H](O)[C@H](O)[C@H]1O)C3 [Form 4, Rebaudioside A] | High | Rate of dissolution in H2O at 25° C. ([2]; in 5 minutes): > 35% |
|  |  |  |  | C=C1C[C@@]23CC[C@H]4[C@@](C)(CCC[C@@]4(C)C(=O)O[C@@H]4O[C@H](CO)[C@@H](O)[C@H](O)[C@H]4O)[C@@H]2CC[C@]1(O[C@@H]1O[C@H](CO)[C@@H](O)[C@H](O[C@@H]2O[C@H](CO)[C@@H](O)[C@H](O)[C@H]2O)[C@H]1O[C@@H]1O[C@H](CO)[C@@H](O)[C@H](O)[C@H]1O)C3 [Form 2, Rebaudioside A] | Intermediate | solubility ([1]; listed as anhydrous form): up to 30% |
|  |  |  |  | C=C1C[C@@]23CC[C@H]4[C@@](C)(CCC[C@@]4(C)C(=O)O[C@@H]4O[C@H](CO)[C@@H](O)[C@H](O)[C@H]4O)[C@@H]2CC[C@]1(O[C@@H]1O[C@H](CO)[C@@H](O)[C@H](O[C@@H]2O[C@H](CO)[C@@H](O)[C@H](O)[C@H]2O)[C@H]1O[C@@H]1O[C@H](CO)[C@@H](O)[C@H](O)[C@H]1O)C3 [rebaudioside A] |  | solubility in water [3]: 0.6% |
| Clear solution | Clear solution | Slightly cloudy | Cloudy solution | C=C1C[C@@]23CC[C@H]4[C@@](C)(CCC[C@@]4(C)C(=O)O[C@@H]4O[C@H](CO)[C@@H](O)[C@H](O)[C@H]4O)[C@@H]2CC[C@]1(O[C@@H]1O[C@H](CO)[C@@H](O)[C@H](O[C@@H]2O[C@H](CO)[C@@H](O)[C@H](O)[C@H]2O)[C@H]1O[C@@H]1O[C@H](CO)[C@@H](O)[C@H](O)[C@H]1O)C3 [Sample #2, Rebaudioside A] |  |  |
|  |  |  |  | C=C1C[C@@]23CC[C@H]4[C@@](C)(CCC[C@@]4(C)C(=O)O[C@@H]4O[C@H](CO)[C@@H](O)[C@H](O)[C@H]4O)[C@@H]2CC[C@]1(O[C@@H]1O[C@H](CO)[C@@H](O)[C@H](O[C@@H]2O[C@H](CO)[C@@H](O)[C@H](O)[C@H]2O)[C@H]1O[C@@H]1O[C@H](CO)[C@@H](O)[C@H](O)[C@H]1O)C3 [highly soluble amorphous form of rebaudioside A] |  | solubility in water [3]: greater than 30% |
| Clear solution | Clear solution | Clear solution | Clear solution | C=C1C[C@@]23CC[C@H]4[C@@](C)(CCC[C@@]4(C)C(=O)O[C@@H]4O[C@H](CO)[C@@H](O)[C@H](O)[C@H]4O)[C@@H]2CC[C@]1(O[C@@H]1O[C@H](CO)[C@@H](O)[C@H](O[C@@H]2O[C@H](CO)[C@@H](O)[C@H](O)[C@H]2O)[C@H]1O[C@@H]1O[C@H](CO)[C@@H](O)[C@H](O)[C@H]1O)C3 [Sample #3, Rebaudioside A] |  | Observation (solubility) ([4]; at 40% in water): Slightly cloudy |
| Clear solution | Slightly cloudy | Cloudy solution | Undissolved matter | C=C1C[C@@]23CC[C@H]4[C@@](C)(CCC[C@@]4(C)C(=O)O[C@@H]4O[C@H](CO)[C@@H](O)[C@H](O)[C@H]4O)[C@@H]2CC[C@]1(O[C@@H]1O[C@H](CO)[C@@H](O)[C@H](O[C@@H]2O[C@H](CO)[C@@H](O)[C@H](O)[C@H]2O)[C@H]1O[C@@H]1O[C@H](CO)[C@@H](O)[C@H](O)[C@H]1O)C3 [Sample #1, Rebaudioside A] |  |  |
